{"source": "patent US20240294595A1", "about": "“GLYCOPEPTIDES AND USES THEREOF” (Arizona Board of Regents on Behalf of the University of …, priority 2013, published 2024)", "key": {"[1]": {"tested_on": "6-OHDA hemi-parkinsonian rat model", "experiment": "mild (25%) 6-OHDA hemi-parkinsonian rat model (study 1)", "assay_type": "in vivo", "text": "The classical mild progressive 6-OHDA hemi-parkinsonian rat model was used to assess the neuroprotective potential of 2LS98Lac (FIGS. 9A,B). Briefly, the rats were given unilateral lesions by treatment with 6-OHDA. Then, the rats were challenged with a dopaminergic receptor agonist (amphetamine in our case) and assessed for their turning behavior (Kelly et al., 1975; Torres and Dunnet, 2007; DaCunha et al., 2008) The observed rotational behavior is likely due to the denervation of dopaminergic neurons and subsequent hypersensitivity of the dopaminergic receptors in the lesioned area of the brain. In the first experiment, mild lesions (25%) were induced (FIG. 9A) to simulate the early stages of PD, and amphetamine was used to induce […] rotations. Rats were treated with either vehicle or 2LS98Lac (15 mg/kg, i.p.) 6 h prior to lesioning and 24 h post-lesion. […] Following behavioral analysis, the number of tyrosine hydroxylase (TH)-positive neurons in the SNpc of both vehicle-treated and 2LS98Lac-treated animals was determined using immunohistochemical staining and unbiased stereology. […] Both behavioral and histological data obtained from these experiments indicate that 2LS98Lac successfully elicited neuroprotection."}, "[2]": {"tested_on": "6-OHDA hemi-parkinsonian rat model", "experiment": "moderate (40%) 6-OHDA hemi-parkinsonian rat model (study 2)", "assay_type": "in vivo", "text": "In a follow-up study, the neuroprotective potential of 2LS98Lac was also probed in rats with more severe (40%) 6-OHDA-induced lesions and three treatment-injections with 2LS98Lac (FIG. 9B).\nSpecifically, 6-OHDA did lead to reduction of % area IBA-1/cell (F3-24=4.463, p=0.0140; FIG. 9K), process length/cell (F3-24=5.925, p=0.0057; FIG. 9L), branches/cell (F3-24=5.845, p=0.0042; FIG. 9M), and endpoints/cell (F3-24=2.943, p=0.0286; FIG. 9N) on the lesioned side. Treatment with 2LS98Lac did lead to an increase of the parameters on the lesioned side back to levels on the intact side. […] Example images for the nigral IHC for TH and for IBA-1, as well as the semi-quantitative western analyses of striatal TH and beta-actin are presented in FIGS. 10A-D."}, "[3]": {"conditions": "rat, serum"}, "[4]": {"target": "T1, PAC1 (Homo sapiens, UniProt P41586)", "T1 sequence (P41586 21-468)": "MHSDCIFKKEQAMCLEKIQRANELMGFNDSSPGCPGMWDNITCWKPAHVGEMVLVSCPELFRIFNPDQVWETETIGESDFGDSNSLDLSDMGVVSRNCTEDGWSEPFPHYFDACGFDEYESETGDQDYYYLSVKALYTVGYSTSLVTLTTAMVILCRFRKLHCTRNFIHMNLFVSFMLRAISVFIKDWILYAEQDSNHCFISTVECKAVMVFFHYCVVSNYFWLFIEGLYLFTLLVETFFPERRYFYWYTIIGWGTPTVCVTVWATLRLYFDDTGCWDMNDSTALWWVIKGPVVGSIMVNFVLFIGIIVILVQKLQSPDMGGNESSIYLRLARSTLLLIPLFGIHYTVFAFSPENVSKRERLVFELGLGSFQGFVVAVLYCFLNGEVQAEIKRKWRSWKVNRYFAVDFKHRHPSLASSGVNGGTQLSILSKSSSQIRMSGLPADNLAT", "experiment": "PAC1-CHO calcium flux, FLIPR antagonist mode versus PACAP1-27", "assay_type": "cell-based", "parameters": "host or cells: CHO (clonal line PAC1-CHO)", "description": "The construct was electroporated into Chinese Hamster Ovary (CHO) cells, and selected for with 500 μg/mL of G418. The resulting population was screened for high expressing clones, and one such clone selected for further analysis. […] This cell line was used for all molecular pharmacology experiments. […] All molecular pharmacology experiments were carried out using a FLIPR Tetra from Molecular Devices (Sunnyvale, CA), set to image calcium flux using the manufacturer's recommended settings and protocols. […] The cells were recovered overnight in growth medium (as above). The next day, the growth medium was replaced with Calcium 6 dye (Molecular Devices) using the manufacturer recommended buffer with 2.5 mM probenecid. […] The resulting calcium flux was recorded, and the maximum-minimum response over the entire observation time calculated and reported as the mean±SEM (4 wells per point). For antagonist mode experiments, a concentration curve (variable concentration mode) or fixed amount (fixed concentration mode) of antagonist was added to the cells, and allowed to equilibrate for 2 minutes. […] The resulting data was analyzed using a Gaddum/Schild EC50 shift model, (Schild, 1957, Gaddum, 1957) designed to analyze competitive antagonism. (Lazareno and Birdsall, 1993) The data output was the pA2 (nM) and the Schild Slope, a measure of how closely the experimental data fits the operational model of competitive antagonism (Prism). For all analyses, each independent experiment performed in quadruplicate is considered to be a sample size of 1. The pharmacology values are calculated separately from each experiment, then combined and reported as the mean±SEM for the entire set of experiments."}, "[5]": {"target": "T1, PAC1", "conditions": "previously reported; cited from earlier work"}, "[6]": {"experiment": "stability in mouse serum at 37° C. (FI-MSn)", "assay_type": "in vitro ADME", "conditions": "mouse serum at 37° C.", "text": "Chemical stability of the glycopeptides in vivo plays an important role in the deliverability of the drugs to the site(s) of action within the brain. It is also important to know what the chemical or metabolic instabilities are in order to inform the drug design process. […] Data were fitted using a single exponential decay model (R^2>0.71, in all cases).\nThe overall process was as follows: Flow-injection tandem mass spectrometry (FI-MS^n) was used to observe the degradation of the peptides and glycopeptides with a Thermo LCQ with electrospray ionization (ESI). The technique involved injection of a sample bolus of material in mouse serum via a six port valve with fluid flow delivered via a syringe pump, and subsequent electrospray ionization (ESI) followed by mass spectral analysis. Samples were diluted to a concentration of ˜5 μM of each PACAP analogue, and were incubated at 37° C. for times varying from 1 to 60 minutes. After samples had been incubated for the prescribed amount of time they were prepared for mass spectrometry analysis by withdrawing 10 microliters of solution and spiking with 1 microliter of a 10 μM solution of peptide internal standard (angiotensin II) in 50% acetic acid and subjecting them to a standard C18 zip tip desalting. These solutions, once eluted from the zip tip were diluted to 100 μL in 50:50 acetonitrile/water with 0.1% formic acid. Tandem mass spectrometry analysis (MS^3) was conducted to yield specific, quantitative signals proportional to the amount of PACAP analogue at each time point. This technique was also used with microdiasylate samples from a mouse after i.p. administration of PACAP1-27-S-G."}, "[7]": {"tested_on": "PC12 cells", "experiment": "PC12 cell morphology / neurite outgrowth", "assay_type": "cell-based", "conditions": "100 nM", "description": "PC12 cells are non-adherent cells, and in spite of using the poly-D-Lysine coated plates, the majority of the cells remained suspended. During the media exchange many of the cells were removed with the spent media. The remaining cells could be visually evaluated for qualitative morphological changes at the end of the treatment period, but meaningful cell quantification could not be done reliably using this approach.\nFIGS. 5A-5D show PC12 Cell Morphology after Vehicle vs PACAP Treatment (100 nM). […] In all cases the process outgrowths on the treated cells were greater than 2× the cell body width\nThe PC12 cells were cultured in RPMI containing 5% heat inactivated fetal bovine serum and 10% horse serum in the presence of 100 units/mL penicillin and 100 microgram/mL streptomycin. The cells were plated on poly-D-Lysine coated 6-well tissue culture plates at a density of 150,000 cells per well in 2 mL media. After 48 hours at 37° C. in 5% CO2 atmosphere, media exchange was performed and plates were dosed, using the peptide diluent (water) for the control samples. […] Cell images of each treatment group were captured and compared to the control cells to screen for differentiation and cell body volume increases. Cells having neurite-like process outgrowth were noted and photographed. The neurite-like outgrowth was deemed positive if its length was at least two times the width of the cell body."}, "[8]": {"conditions": "lesioned side, treatment vs vehicle"}, "[9]": {"conditions": "three treatment-injections, vs vehicle"}, "[10]": {"conditions": "treatment vs vehicle, listed as 2LS98lac"}}, "note": "“Also recorded” adds a separate entry of the source. Where no end group is shown, it is not given here."}
{"molecule": "2LS98Lac: PACAP glycopeptide; 2LS98 = HSDGIFTDSYSRYRKQLAVKKYLAAVL-Ser-CONH2 (SEQ ID NO: 7), lactose (HSDGIFTDSYSRYRKQLAVKKYLAAVLS; not fully specified; lactose glycosylation, C-terminal amide) [Compound 2LS98Lac]", "values": [{"measurement": "cumulative amphetamine-induced contralateral rotations", "setting": "[1]; 15 mg/kg i.p. 6 h prior and 24 h post-lesion, vs vehicle", "value": "significantly decreased; also recorded: reduces 6-OHDA-induced lesion damage"}, {"measurement": "TH-positive neurons in the SNpc, lesioned vs intact side", "setting": "[1]; 15 mg/kg i.p., mild lesion", "value": "neuronal cell death was attenuated"}, {"measurement": "6-OHDA-induced change in microglia morphologic phenotype", "setting": "[2]; lesioned side", "value": "fully reversed"}, {"measurement": "% area IBA-1/cell", "setting": "[2]; [8]", "value": "significant increase"}, {"measurement": "branches/cell", "setting": "[2]; [8]", "value": "significant increase"}, {"measurement": "endpoints/cell", "setting": "[2]; [8]", "value": "trend toward increase"}, {"measurement": "process length/cell", "setting": "[2]; [8]", "value": "significant increase"}, {"measurement": "6-OHDA-induced change in microglia morphologic phenotype", "setting": "[2]; lesioned side, listed as 2LS98lac", "value": "rescues 6-OHDA induced morphological changes to microglia"}, {"measurement": "nigral TH-cell count on the lesioned side", "setting": "[2]; moderate lesion", "value": "9,244 cells"}, {"measurement": "mean increase of nigral TH-cell count on the lesioned side vs vehicle group", "setting": "[2]; not significant (p=0.2208)", "value": 850, "unit": "cells"}, {"measurement": "amphetamine-induced rotations at 2 weeks post-lesion", "setting": "[2]; [9]", "value": "did not see a difference; also recorded: does not reduce 6-OHDA-induced lesion damage"}, {"measurement": "amphetamine-induced rotations at 4 weeks post-lesion", "setting": "[2]; [9]", "value": "did not see a difference; also recorded: does not reduce 6-OHDA-induced lesion damage"}, {"measurement": "striatal DA content", "setting": "[2]; treatment vs vehicle", "value": "no significant difference"}, {"measurement": "striatal TH (western analysis)", "setting": "[2]; treatment vs vehicle", "value": "no significant difference"}, {"measurement": "striatal DA content", "setting": "[2]; [10]", "value": "did not change"}, {"measurement": "striatal TH (western analysis)", "setting": "[2]; [10]", "value": "did not change"}]}
{"molecule": "CC[C@H](C)[C@H](NC(=O)CNC(=O)[C@H](CC(=O)O)NC(=O)[C@H](CO)NC(=O)[C@@H](N)Cc1c[nH]cn1)C(=O)N[C@@H](Cc1ccccc1)C(=O)N[C@H](C(=O)N[C@@H](CC(=O)O)C(=O)N[C@@H](CO)C(=O)N[C@@H](Cc1ccc(O)cc1)C(=O)N[C@@H](CO)C(=O)N[C@@H](CCCNC(=N)N)C(=O)N[C@@H](Cc1ccc(O)cc1)C(=O)N[C@@H](CCCNC(=N)N)C(=O)N[C@@H](CCCCN)C(=O)N[C@@H](CCC(N)=O)C(=O)N[C@@H](CC(C)C)C(=O)N[C@@H](C)C(=O)N[C@H](C(=O)N[C@@H](CCCCN)C(=O)N[C@@H](CCCCN)C(=O)N[C@@H](Cc1ccc(O)cc1)C(=O)N[C@@H](CC(C)C)C(=O)N[C@@H](C)C(=O)N[C@@H](C)C(=O)N[C@H](C(=O)N[C@@H](CC(C)C)C(=O)N[C@@H](CO[C@@H]1O[C@H](CO)[C@@H](O[C@@H]2O[C@H](CO)[C@H](O)[C@H](O)[C@H]2O)[C@H](O)[C@H]1O)C(N)=O)C(C)C)C(C)C)[C@@H](C)O", "note": "[Compound 2LS80Lac]", "values": [{"measurement": "half-life", "setting": "[3]", "value": "> 1", "unit": "h"}]}
{"molecule": "CSCC[C@H](NC(=O)[C@H](CCC(N)=O)NC(=O)[C@H](CCCCN)NC(=O)[C@H](CCCNC(=N)N)NC(=O)[C@H](Cc1ccc(O)cc1)NC(=O)[C@H](CCCNC(=N)N)NC(=O)[C@H](CO)NC(=O)[C@H](Cc1ccc(O)cc1)NC(=O)[C@H](CO)NC(=O)[C@H](CC(=O)O)NC(=O)[C@@H](NC(=O)[C@@H](N)Cc1ccccc1)[C@@H](C)O)C(=O)N[C@@H](C)C(=O)N[C@H](C(=O)N[C@@H](CCCCN)C(=O)N[C@@H](CCCCN)C(=O)N[C@@H](Cc1ccc(O)cc1)C(=O)N[C@@H](CC(C)C)C(=O)N[C@@H](C)C(=O)N[C@@H](C)C(=O)N[C@H](C(=O)N[C@@H](CC(C)C)C(=O)NCC(=O)N[C@@H](CCCCN)C(=O)N[C@@H](CCCNC(=N)N)C(=O)N[C@@H](Cc1ccc(O)cc1)C(=O)N[C@@H](CCCCN)C(=O)N[C@@H](CCC(N)=O)C(=O)N[C@@H](CCCNC(=N)N)C(=O)N[C@H](C(=O)N[C@@H](CCCCN)C(=O)N[C@@H](CC(N)=O)C(=O)N[C@@H](CCCCN)C(N)=O)C(C)C)C(C)C)C(C)C", "note": "[PACAP6-38]", "values": [{"measurement": "Kb", "setting": "[4]; Gaddum/Schild EC50 shift model, read-out: pA2 (converted)", "value": "201 ± 55.4", "unit": "nM"}, {"measurement": "IC50", "setting": "[4]; read-out: antagonism potency (IC50), variable concentration mode", "value": "> 333", "unit": "nM"}, {"measurement": "Ki", "setting": "[5]", "value": 1.5, "unit": "nM"}]}
{"molecule": "PACAP1-27-S-L: the corresponding lactoside of PACAP1-27 (HSDGIFTDSYSRYRKQMAVKKYLAAVLS; not fully specified)", "values": [{"measurement": "degradation in mouse serum", "setting": "[6]", "value": "degraded over 30 min"}, {"measurement": "cell body volumes", "setting": "[7]", "value": "showed increases"}]}
{"molecule": "PACAP6-27: truncated putative antagonist (FTDSYSRYRKQMAVKKYLAAVL; ends and bridges not checked)", "values": [{"measurement": "shift of PACAP1-27 agonist curves, fixed concentration mode", "setting": "[4]; fixed antagonist concentrations up to 1 μM", "value": "no detectable shifts in the agonist curves; also recorded: caused no shift in the agonist curves"}, {"measurement": "antagonist activity, variable concentration mode", "setting": "[4]; versus 5 nM PACAP1-27, concentration up to 1 μM", "value": "no significant antagonist activity"}, {"measurement": "Ki", "setting": "[5]", "value": 60, "unit": "nM"}]}
